# Experimental data: patent US20170119726A1, “Stabilized Cabazitaxel Formulations” (Cipla (UK) Limited, priority 2015, published 2017)
# How the values were obtained:
# [1] = Study 4: in-life observations (mortality, clinical signs, body weight); settings: both treatment groups, 12 mg/kg IV on days 1, 7, 13, 19, nude mice
# Protocol: (§1) DU145 cells (5×106) at their exponential growth phase were inoculated subcutaneously on the dorsal right flank in athymic female mice. […] Animals in the vehicle control group received 5 w/v % dextrose solution. Growth of prostate xenografts (tumor volume) and whole body weights were recorded twice weekly (on days 1, 3, 5, 8, 10, 15, 17, 19) during treatment period. Animals were also monitored for clinical signs and mortality everyday throughout the study. On the day of sacrifice (day 19), blood and tumors were collected from set of animals (4 animals in each time point) at stipulated time points (1, 2, 3, and 4 h post-dose). At the end of blood collection, animals were humanely euthanized by cervical dislocation and tumor in toto was harvested from all the animals, transferred to pre-labeled microcentrifuge tubes before flash freezing in liquid nitrogen.
# [2] = mouse, in vivo, iv, 12 mg/kg
# Protocol: as §1
smiles,measurement,setting,value
"CO[C@H]1C(=O)[C@]2(C)[C@@H](OC)C[C@H]3OC[C@@]3(OC(C)=O)[C@H]2[C@H](OC(=O)c2ccccc2)[C@]2(O)C[C@H](OC(=O)[C@H](O)[C@@H](NC(=O)OC(C)(C)C)c3ccccc3)C(C)=C1C2(C)C [Cabazitaxel, (2α,5β,7β,10β, 13α)-4-acetoxy-13-({(2R,3S)-3[(tertbutoxycarbonyl)amino]-2-hydroxy-3-phenylpropanoyl}-oxy)-1-hydroxy-7,10-dimethoxy-9-oxo-5,20-epoxytax-11-en-2-yl benzoate]",mortality,[1],no mortality was observed
same,tolerability,[2],well tolerated
